Data published in publication PMC10622841, “Structural analysis of a bacterial UDP-sugar 2-epimerase reveals the active site architecture before and after catalysis” (The Journal of Biological Chemistry, 2023).
Blank lines part the entries; values can stand above or below the compound they belong to.

Legend:
[1] = molecular target: T. thermophilus 2-epimerase, WT enzyme, tag-free (Thermus thermophilus HB27); assay: SEC; gel-filtration chromatography against standards (beta-amylase, acetyl CoA synthase, carbonic anhydrase, cytochrome c); conditions not given
[2] = molecular target: T1, T. thermophilus 2-epimerase (Thermus thermophilus, UniProt Q72KY0, D98N); assay: X-ray crystallography; type: binding; conditions: active site; pH 6.0-9.0; C- or N-terminal His tag
T1 construct: gene TT_C0285; full length, recombinant in E. coli Rosetta2(DE3); tag-free (rTEV-cut N-terminal His tag); homodimer, 82 kDa by gel filtration
T1 sequence (Q72KY0 entry or part of it D98N): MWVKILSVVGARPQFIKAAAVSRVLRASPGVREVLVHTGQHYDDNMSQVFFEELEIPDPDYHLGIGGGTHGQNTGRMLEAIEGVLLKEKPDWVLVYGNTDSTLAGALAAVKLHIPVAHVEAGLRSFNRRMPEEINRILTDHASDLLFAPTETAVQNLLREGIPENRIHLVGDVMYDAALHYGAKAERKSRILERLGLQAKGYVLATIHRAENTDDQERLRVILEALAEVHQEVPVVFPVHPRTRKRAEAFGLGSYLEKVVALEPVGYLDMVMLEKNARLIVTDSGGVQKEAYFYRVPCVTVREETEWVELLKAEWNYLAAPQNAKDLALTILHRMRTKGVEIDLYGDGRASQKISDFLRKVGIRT

[3] = molecular target: T1, T. thermophilus 2-epimerase; assay: X-ray crystallography; HPLC and mass spectrometry of copurified ligand; type: binding; conditions: with UDP-GlcNAc3NAcA in the active site, pH 6.0-9.0
[4] = molecular target: T2, T. thermophilus 2-epimerase (Thermus thermophilus, UniProt Q72KY0); assay: discontinuous anion-exchange HPLC assay; type: biochemical; conditions: allosteric activator; substrate UDP-GlcNAc3NAcA, pH 8.0, 37 °C, 44 μM enzyme
T2 construct: gene TT_C0285; full length, recombinant in E. coli Rosetta2(DE3); tag-free (rTEV-cut N-terminal His tag); homodimer, 82 kDa by gel filtration
T2 sequence (Q72KY0 1-365): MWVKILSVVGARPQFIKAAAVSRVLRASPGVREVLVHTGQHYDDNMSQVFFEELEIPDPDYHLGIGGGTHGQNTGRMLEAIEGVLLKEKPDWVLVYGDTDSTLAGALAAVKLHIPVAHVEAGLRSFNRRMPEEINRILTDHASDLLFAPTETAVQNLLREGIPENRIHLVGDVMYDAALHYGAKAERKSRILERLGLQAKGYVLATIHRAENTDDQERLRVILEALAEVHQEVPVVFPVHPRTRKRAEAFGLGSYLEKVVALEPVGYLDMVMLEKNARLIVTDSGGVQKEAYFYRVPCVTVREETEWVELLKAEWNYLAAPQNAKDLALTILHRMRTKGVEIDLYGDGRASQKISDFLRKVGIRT

[5] = molecular target: T2, T. thermophilus 2-epimerase; assay: X-ray crystallography; type: binding; conditions: active site; formed from UDP-GlcNAc3NAcA during crystallization; pH 5.0 and 9.0; C-terminal His tag

stoichiometry N [1]: 2
Compound: T. thermophilus 2-epimerase, WT enzyme, tag-free

Compound: CC(=O)N[C@H]1[C@@H](OP(=O)(O)OP(=O)(O)OC[C@H]2O[C@@H](n3ccc(=O)[nH]c3=O)[C@H](O)[C@@H]2O)O[C@H](C(=O)O)[C@@H](O)[C@@H]1NC(C)=O [UDP-GlcNAc3NAcA]
X-ray crystallography [2]: each subunit of the dimer contained both UDP-GlcNAc3NAcA in the active site and UDP-GlcNAc

Compound: O=c1ccn([C@@H]2O[C@H](COP(=O)(O)OP(=O)(O)O)[C@@H](O)[C@H]2O)c(=O)[nH]1 [UDP]
X-ray crystallography; HPLC and mass spectrometry of copurified ligand ([3]; allosteric (auxiliary) pocket): UDP-GlcNAc3NAcA was bound in the active site and UDP in the auxiliary binding pocket

Compound: CC(=O)N[C@H]1[C@@H](OP(=O)(O)OP(=O)(O)OC[C@H]2O[C@@H](n3ccc(=O)[nH]c3=O)[C@H](O)[C@@H]2O)O[C@H](CO)[C@@H](O)[C@@H]1O [UDP-GlcNAc]
discontinuous anion-exchange HPLC assay [4]: the addition of UDP-GlcNAc was required for the reactions to proceed
X-ray crystallography; HPLC and mass spectrometry of copurified ligand ([3]; allosteric pocket): UDP-GlcNAc3NAcA in the active site and UDP-GlcNAc in the auxiliary binding pocket

Compound: CC(=O)N[C@@H]1[C@@H](OP(=O)(O)OP(=O)(O)OC[C@H]2O[C@@H](n3ccc(=O)[nH]c3=O)[C@H](O)[C@@H]2O)O[C@H](C(=O)O)[C@@H](O)[C@@H]1NC(C)=O [UDP-ManNAc3NAcA]
X-ray crystallography [5]: the product, namely UDP-ManNAc3NAcA, was observed in each subunit
